# Patent publication US20240287136A1, “PHARMACEUTICAL COMPOSITION AND THE USE THEREOF IN THE TREATMENT OF AUTOIMMUNE DISEASES” (Singapore Health Services Pte. Ltd., priority 2016, published 2024)
# Ends that are not written are not given here.
# Legend:
# [1] = test system: CD4+FoxP3+Tregs and CD4+CD45RO+memory T cells; assay: Cluster analysis and manual gating of Treg and memory T cell compartments of trial patients; format: in vivo, human
# From the text: Cluster analysis of the immune profiles of healthy individuals and rheumatoid arthritis patients reveal profound perturbations in the various immune cell compartments (FIG. 8). Immune tolerization achieved with SEQ ID NO: 1 treatment reshapes the immunomes of rheumatoid patients (FIG. 8B). The underlying immunological mechanisms behind immune tolerization was investigated by utilising staining panels for surface and activation markers on T cells (FIG. 13).
# Immune phenotypes enriched in this cell subset of SEQ ID NO: 1 responders were memory T cells displaying activation and tolerogenic characteristics (FIG. 11B).
# [2] = test system: peripheral blood mononuclear cells (PBMCs); assay: Immune deviation in PBMCs of trial patients (cytokine production, PD-1 expression); format: in vivo, human; settings: for production of interleukin 10 (IL-10) / production of tumor necrosis factor α (TNFα): PBMCs / T cell subset of treated patients; for expression of Programmed Death 1 (PD-1) in PBMC: clinical responders, data not shown
# Experimental: The model employed here is based on the hypothesis that immune tolerization to a T-cell epitope, such as SEQ ID NO. 1 that may be a contributor of inflammation in patients with rheumatoid arthritis, may lead to detectable clinical improvement. A total of 96 patients with early rheumatoid arthritis, who were not allowed on Methotrexate or biologics, were tested with mucosal tolerization to SEQ ID NO. 1. Patients are defined as “responders” if they meet the response criteria at any time during the study. […] SEQ ID NO.
# 1 (herein dubbed clinical responders) was observed (data not shown). PD-1 was first described as a contributor to T-cell anergy and exhaustion in chronic viral infections and cancer.
# It is established that SEQ ID NO: 1 treatment was associated with an immune deviation in the T cell subset characterized by a decrease and an increase in tumor necrosis factor α (TNFα) and IL-10, respectively.
# [3] = test system: regulatory T cell (Treg) (CD4+CD25++CD127−); assay: Treg functionality: suppression of Teff proliferation (CFSE dilution); format: in vivo, human; settings: SEQ ID NO. 1 clinical responders at Tend, n=3; mean and s.e.m.; placebo clinical non-responders —76.21+/−3.665
# Experimental: FIG. 3. Effector and regulatory T cell function differ according to clinical response: a. effector T cells (Teff) (CD4+CD127+) at beginning of the trial (TO) and end of the study (Tend) were compared for PD-1 expression in both SEQ ID NO. 1 clinical responders and placebo clinical non-responders by FACS. b. FACS-sorted Teffwere analyzed for IL-17 and for RORC. Teff were stained intracellularly with IL-17A, and analyzed by FACS. c. regulatory T cell (Treg) (CD4+CD25++CD127−) frequency (% of PBMC) was determined in SEQ ID NO. 1—treated clinical responders by FACS. […] Values are the mean and s.e.m. d. Treg functionality in SEQ ID NO. […] (placebo clinical non-responders vs SEQ ID NO. 1 clinical responders, —76.21+/−3.665 vs 8.443+/−4.677, n=2 vs 3, t-test p0.0010). […]
# FIG. 5. […] Treg ability to suppress Teff proliferation was determined by CFSE dilution. […] T(x)=Probability binning. % PD-1+Treg is expressed as percentage of the total Treg population (insets in both panels). d. […] The average pSTAT5 expression per cell for anti-PD-1 treatment, as determined by the average integral density per unit area, was calculated using ImageJ (Rasband, W. S., ImageJ, http://rsb.info.nih.gov/ij/, 1997-2009). […] Total Treg, PD-1+Treg and PD-1− Treg from clinical responders (n=S) at Tend were sorted and RNA expression of CTLA-4, FoxP3, IL-10 and TGF-β was measured by TaqMan. Data are expressed as 2(−dCT)×100 of GAPDH. […]
# [4] = test system: PD-1+Treg and PD-1− Treg; assay: TaqMan RNA expression in sorted total, PD-1+ and PD-1− Treg of clinical responders; format: in vivo, human; settings: SEQ ID NO. 1 clinical responders at Tend
# Experimental: FIG. 5. PD-1 actively contributes to Treg function: a. Treg ability to suppress Teff proliferation was determined by CFSE dilution. A representative clinical responder is depicted. Treg cells were sorted by FACS according to the phenotype depicted in the table and incubated with Teff in the presence of 10 mg/ml of SEQ ID NO. 1. b. […] 1. c. […] 1. Line with white area under the curve depicts T0, grey area depicts Tend. T(x)=Probability binning. % PD-1+Treg is expressed as percentage of the total Treg population (insets in both panels). d. […] PD-1+Treg cells were stained by FACS after a 5-day incubation with Teff and APC in the presence or absence of anti-PD1 antibody. Details in methods. Line with white area under the curve depicts anti-PD1 treated, grey area depicts untreated. T(x)=Probability binning. e. pSTAT5 was examined in Treg via immunofluorescent microscopy. Cells, staining and slides were prepared according to procedures outlined in the methods. The average pSTAT5 expression per cell for anti-PD-1 treatment, as determined by the average integral density per unit area, was calculated using ImageJ (Rasband, W. S., ImageJ, http://rsb.info.nih.gov/ij/, 1997-2009). Untreated vs. anti-PD-1 treated: 38.79 vs. 33.07, standard deviation 4.27 vs. […], t-test p<0.0001. f. […] Teff were stained by FACS after a 5-day incubation in the presence or absence of anti-PD1 antibody. Details in methods. Line with white area under the curve depicts anti-PD1 treated, grey area depicts untreated. T(x)=Probability binning. g. Total Treg, PD-1+Treg and PD-1− Treg from clinical responders (n=S) at Tend were sorted and RNA expression of CTLA-4, FoxP3, IL-10 and TGF-β was measured by TaqMan. Data are expressed as 2(−dCT)×100 of GAPDH. […] 1 clinical responders (18.99+/−3.412 vs 2.693+/−1.434, n=S p=0.0130).
# To further characterize function of PD-1+Treg, mRNA was extracted from FACS-sorted CD4+/CD25++/CD127−total Treg, PD-1+Treg and PD-1-Treg and tested by qPCR for expression of various genes associated with Treg function.
# [5] = test system: PBMCs; assay: TaqMan gene expression of regulatory molecules in PBMCs incubated in vitro with SEQ ID NO. 1; format: cell-based, human; settings: T0 PBMCs incubated with 10 mg/ml SEQ ID NO. 1 for 48 hours
# Experimental: PBMCs from T0 were incubated in vitro with 10 mg/ml SEQ ID NO. 1 for 48 hours, and TaqMan was performed as described earlier. Data are expressed as 2(−dCT)×100 of GAPDH. PD-1, 0.3595+/−0.1033 vs 0.9310+/−0.1961, n=S, p0.0327 PD-L1, 0.1400+/−0.05308 vs 1.080+/−0.1926, n=6, p0.0005 CTLA-4, 0.2667+/−0.07313 vs 4.809+/−2.606, n=6, p0.0588 Foxp3, 0.2678+/−0.1267 vs 2.329+/−0.9527, n=6, p0.0422 P values were obtained by t-test.
# [6] = placebo clinical non-responders
substance,measurement,setting,value
QKRAAYDQYGHAAFE-NH2 [SEQ ID NO. 1],"percentage of CD4+FoxP3+Tregs expressing GITR, PD-1 and HLA-DR",[1]; SEQ ID NO: 1 responders versus placebo non-responders (FIG. 8E),higher percentage
same,proportion of CD4+CD45RO+memory T cells activated and regulatory (CD69 and TGFβ expression),[1]; SEQ ID NO: 1 responders versus placebo non-responders (FIG. 11C),larger proportion
same,production of interleukin 10 (IL-10),[2],increased production
same,production of tumor necrosis factor α (TNFα),[2],decreased production
same,production of interleukin 10 (IL-10),[2]; listed as SEQ ID NO: 1,increase
same,production of tumor necrosis factor α (TNFα),[2]; listed as SEQ ID NO: 1,decrease
same,expression of Programmed Death 1 (PD-1) in PBMC,[2],significantly higher expression
same,expression of Programmed Death 1 (PD-1) in PBMC,[2]; listed as SEQ ID NO: 1,significantly higher levels
same,"Treg functionality, % suppression of Teff proliferation",[3],8.443+/−4.677 % suppression
same,"CTLA-4, FoxP3 and IL-10 expression between the different subsets of Treg",[4],did not differ
same,TGF-β gene expression in PD-1+Treg,[4],18.99+/−3.412 2(−dCT)×100 of GAPDH
same,TGF-β gene expression in PD-1− Treg,[4],2.693+/−1.434 2(−dCT)×100 of GAPDH
same,CTLA-4 gene expression in PBMCs,[5]; clinical responders,4.809+/−2.606 2(−dCT)×100 of GAPDH
same,Foxp3 gene expression in PBMCs,[5]; clinical responders,2.329+/−0.9527 2(−dCT)×100 of GAPDH
same,PD-1 gene expression in PBMCs,[5]; clinical responders,0.9310+/−0.1961 2(−dCT)×100 of GAPDH
same,PD-L1 gene expression in PBMCs,[5]; clinical responders,1.080+/−0.1926 2(−dCT)×100 of GAPDH
same,CTLA-4 gene expression in PBMCs,[5]; [6],0.2667+/−0.07313 2(−dCT)×100 of GAPDH
same,Foxp3 gene expression in PBMCs,[5]; [6],0.2678+/−0.1267 2(−dCT)×100 of GAPDH
same,PD-1 gene expression in PBMCs,[5]; [6],0.3595+/−0.1033 2(−dCT)×100 of GAPDH
same,PD-L1 gene expression in PBMCs,[5]; [6],0.1400+/−0.05308 2(−dCT)×100 of GAPDH
